Counter-ions that a name gives are not always drawn. Like-named read-outs stand apart in the source and are kept apart here.
Target: T1, human AspH (His6-AspH315–758) (Homo sapiens, UniProt Q12797)
T1 construct: N-Terminally His6-tagged human AspH315–758 (His6-AspH315–758) was produced in Escherichia coli BL21 (DE3) cells; made in house; host or cells: Escherichia coli BL21 (DE3), pET-28a(+) vector
T1 sequence (Q12797 315-758): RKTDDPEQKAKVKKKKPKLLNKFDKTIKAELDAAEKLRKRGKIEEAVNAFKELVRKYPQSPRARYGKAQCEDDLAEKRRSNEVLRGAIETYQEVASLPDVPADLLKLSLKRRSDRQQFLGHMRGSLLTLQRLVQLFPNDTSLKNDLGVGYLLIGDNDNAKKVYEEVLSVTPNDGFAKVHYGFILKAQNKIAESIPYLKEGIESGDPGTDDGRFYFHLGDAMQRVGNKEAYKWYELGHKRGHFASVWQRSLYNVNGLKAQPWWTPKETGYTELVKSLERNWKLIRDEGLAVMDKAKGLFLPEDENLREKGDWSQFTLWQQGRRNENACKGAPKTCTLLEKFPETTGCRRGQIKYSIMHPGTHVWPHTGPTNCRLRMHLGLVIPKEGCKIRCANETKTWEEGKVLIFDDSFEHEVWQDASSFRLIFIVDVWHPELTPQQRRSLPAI
Assay: SPE-MS AspH inhibition assay (hFX-CP101-119 substrate hydroxylation)
Format: biochemical

[1] = AspH-inhibitor screening, 384-well Plate 1
[2] = AspH-inhibitor screening, 384-well Plate 1, substrate conversion
[3] = AspH-inhibitor screening, Plate 1-duplicate
[4] = AspH-inhibitor screening, Plate 1-duplicate, substrate conversion
[5] = 50 nM His6-AspH315–758, 1 μM hFX-CP101–119, 100 μM LAA, 3 μM 2OG, 2 μM FAS, 50 mM HEPES pH 7.5, 20 °C, read-out: IC50
[6] = 20 μM fixed inhibitor, 50 nM His6-AspH315–758, 1 μM hFX-CP101–119, 100 μM LAA, 3 μM 2OG, 2 μM FAS, 50 mM HEPES pH 7.5, 20 °C, relative to DMSO and 2,4-PDCA controls
[7] = read-out: IC50 at 10 μM substrate, 10 μM hFX-CP101–119 and 10 μM 2OG instead of 1 μM hFX-CP101–119 and 3 μM 2OG
[8] = read-out: IC50 at 20 μM Fe(II), 20 μM Fe(II) instead of 2 μM Fe(II)
[9] = read-out: IC50 at 200 μM 2OG, 200 μM 2OG instead of 3 μM 2OG

Row | Plate 1 (% inhibition) [1] | Plate 1 (% conversion) [2] | Plate 1-duplicate (% inhibition) [3] | Plate 1-duplicate (% conversion) [4] | Structure (SMILES) | also measured
1 | 10.91% | 44.71% | 6.57% | 48.78% | COc1cc([C@@H]2c3cc4c(cc3[C@@H](O[C@@H]3O[C@@H]5CO[C@@H](c6cccs6)O[C@H]5[C@H](O)[C@H]3O)[C@H]3COC(=O)[C@H]23)OCO4)cc(OC)c1O [Teniposide] | –
2 | -67.01% | 80.70% | -61.42% | 82.50% | Cn1cncc1[C@@](N)(c1ccc(Cl)cc1)c1ccc2c(c1)c(-c1cccc(Cl)c1)cc(=O)n2C [Tipifarnib (Zarnestra)] | –
3 | 4.87% | 47.50% | 6.81% | 48.66% | CC[C@@]1(O)C(=O)OCc2c1cc1n(c2=O)Cc2cc3c(CN(C)C)c(O)ccc3nc2-1 [Topotecan hydrochloride] | –
4 | 75.12% | 15.06% | 75.95% | 14.37% | CN(C)CCOc1ccc(/C(=C(/CCCl)c2ccccc2)c2ccccc2)cc1 [Toremifene citrate] | –
5 | 92.77% | 6.91% | 87.89% | 8.45% | O=C(CCCCCCC(=O)Nc1ccc([C@H]2O[C@@H](CSc3nc(-c4ccccc4)c(-c4ccccc4)o3)C[C@@H](c3ccc(CO)cc3)O2)cc1)NO [Tubacin, reference compound] | IC50 [5]: 4.12 ± 0.5 µM; AspH inhibition at 20 μM [6]: 90.3 ± 3.5%; inhibition at 20 µM [6]: > 90%; IC50 [7]: 3.57 ± 0.1 µM; IC50 [8]: 4.91 ± 1.63 µM; IC50 [9]: 5.69 ± 0.7 µM
6 | -13.29% | 55.89% | -15.22% | 59.59% | CN1CCc2c(c3ccccc3n2Cc2ccc(C(=O)NO)cc2)C1.Cl [Tubastatin A HCl] | –
7 | 10.19% | 45.05% | 7.21% | 48.47% | N#Cc1ccc(COC[C@H]2O[C@@H](n3c(NCc4ccc(Cl)c(Cl)c4)nc4c(N)ncnc43)[C@H](O)[C@@H]2O)cc1 [VER 155008] | –
8 | -2.24% | 50.79% | -16.67% | 60.31% | CCCCC(=O)OCC(=O)[C@]1(O)Cc2c(O)c3c(c(O)c2[C@@H](O[C@H]2C[C@H](NC(=O)C(F)(F)F)[C@H](O)[C@H](C)O2)C1)C(=O)c1c(OC)cccc1C3=O [Valrubicin] | –
9 | 7.55% | 46.26% | 6.67% | 48.73% | Clc1ccc(Nc2nnc(Cc3ccncc3)c3ccccc23)cc1 [Vatalanib] | –
10 | -22.64% | 60.21% | -30.80% | 67.31% | CC[C@]1(O)C[C@@H]2CN(CCc3c([nH]c4ccccc34)[C@@](C(=O)OC)(c3cc4c(cc3OC)N(C)[C@H]3[C@@](O)(C(=O)OC)[C@H](OC(C)=O)[C@]5(CC)C=CCN6CC[C@]43[C@@H]65)C2)C1 [Vinblastine sulfate] | –
11 | 35.58% | 33.32% | 36.10% | 34.14% | CCC1=C[C@@H]2CN(C1)Cc1c([nH]c3ccccc13)[C@@](C(=O)OC)(c1cc3c(cc1OC)N(C)[C@H]1[C@@](O)(C(=O)OC)[C@H](OC(C)=O)[C@]4(CC)C=CCN5CC[C@]31[C@@H]54)C2 [Vinorelbine tartrate] | –
12 | 10.42% | 44.94% | 2.79% | 50.66% | CS(=O)(=O)c1ccc(C(=O)Nc2ccc(Cl)c(-c3ccccn3)c2)c(Cl)c1 [Vismodegib] | –
13 | 3.50% | 48.13% | 7.67% | 48.24% | O=C(CCCCCCC(=O)Nc1ccccc1)NO [Vorinostat] | –

Continued, compound first:

Row | Structure (SMILES) | Plate 1 (% inhibition) [1] | Plate 1 (% conversion) [2] | Plate 1-duplicate (% inhibition) [3] | Plate 1-duplicate (% conversion) [4] | also measured
14 | CO[C@H]1C[C@@H]2CC[C@@H](C)[C@@](O)(O2)C(=O)C(=O)N2CCCC[C@H]2C(=O)O[C@H]([C@H](C)C[C@@H]2CC[C@@H](OC(=O)C(C)(CO)CO)[C@H](OC)C2)CC(=O)[C@H](C)/C=C(\C)[C@@H](O)[C@@H](OC)C(=O)[C@H](C)C[C@H](C)/C=C/C=C/C=C/1C [Temsirolimus] | 35.77% | 33.23% | 28.92% | 37.70% | –
15 | Cl.c1ccc(C2CN3CCSC3=N2)cc1 (stereo not drawn) [Tetramisole HCl] | – | – | – | – | Plate 1 (% conversion): 46.13%; Plate 1 (% inhibition): 7.83%; Plate 1-duplicate (% conversion): 48.14%; Plate 1-duplicate (% inhibition): 7.87%
16 | O=C1CCC(N2C(=O)c3ccccc3C2=O)C(=O)N1 (stereo not drawn) [Thalidomide] | 3.16% | 48.29% | 1.43% | 51.33% | –
17 | S=P(N1CC1)(N1CC1)N1CC1 [Thio-TEPA] | 17.81% | 41.53% | 7.73% | 48.21% | –
18 | Nc1nc2nc[nH]c2c(=S)[nH]1 [Thioguanine] | 7.28% | 46.39% | 8.14% | 48.00% | –
19 | CC1=C(/C=C/C(C)=C/C=C/C(C)=C/C(=O)O)C(C)(C)CCC1 [Tretinoin] | 71.19% | 16.88% | 64.04% | 20.28% | –
20 | C1CN1c1nc(N2CC2)nc(N2CC2)n1 [Triethylenemelamine] | – | – | – | – | Plate 1 (% conversion): 46.54%; Plate 1 (% inhibition): 6.96%; Plate 1-duplicate (% conversion): 50.74%; Plate 1-duplicate (% inhibition): 2.63%
21 | O=c1[nH]c(=O)n([C@H]2C[C@H](O)[C@@H](CO)O2)cc1C(F)(F)F [Trifluridine] | 1.86% | 48.89% | -0.91% | 52.49% | –
22 | CN[C@@H]1C[C@H]2O[C@@](C)([C@@H]1OC)n1c3ccccc3c3c4c(c5c6ccccc6n2c5c31)C(=O)N[C@H]4O [UCN-01] | 3.15% | 48.30% | -0.80% | 52.44% | –
23 | Oc1ncc(N(CCCl)CCCl)c(O)n1 [Uracil mustard] | – | – | – | – | Plate 1 (% conversion): 47.47%; Plate 1 (% inhibition): 4.95%; Plate 1-duplicate (% conversion): 46.70%; Plate 1-duplicate (% inhibition): 10.76%
24 | CC(=O)OC[C@H]1O[C@@H](n2ccc(=O)[nH]c2=O)[C@H](OC(C)=O)[C@@H]1OC(C)=O [Uridine triacetate] | 4.05% | 47.88% | 7.04% | 48.55% | –
25 | CCCC(CCC)C(=O)O [Valproic acid] | 16.50% | 42.13% | 5.73% | 49.20% | –
26 | COc1cc2c(Nc3ccc(Br)cc3F)ncnc2cc1OCC1CCN(C)CC1 [Vandetanib] | -0.26% | 49.87% | 1.85% | 51.12% | –
27 | CCc1c(C(=O)C(N)=O)c2c(OCC(=O)O)cccc2n1Cc1ccccc1 [Varespladib] | 9.84% | 45.21% | 8.14% | 48.01% | –
28 | CCCS(=O)(=O)Nc1ccc(F)c(C(=O)c2c[nH]c3ncc(-c4ccc(Cl)cc4)cc23)c1F [Vemurafenib, reference compound] | – | 12.12% | – | 12.00% | IC50 [5]: 12.9 ± 1.6 µM; remaining activity at 20 µM (20 μM fixed inhibitor concentration): ~20%; Hill coefficient of AspH inhibition curves (dose-response curves of SPE-MS AspH inhibition assay): < -2.0; IC50 [7]: 16.9 ± 4.4 µM; IC50 [8]: 10.5 ± 1.9 µM; IC50 [9]: 15.1 ± 0.2 µM
29 | CC[C@]1(O)C[C@H]2CN(CCc3c([nH]c4ccccc34)[C@@](C(=O)OC)(c3cc4c(cc3OC)N(C=O)[C@H]3[C@@](O)(C(=O)OC)[C@H](OC(C)=O)[C@]5(CC)C=CCN6CC[C@]43[C@@H]65)C2)C1.O=S(=O)(O)O [Vincristine Sulfate (Oncovin)] | 7.89% | 46.11% | 3.90% | 50.11% | –

Reference: article PMC7588595, “Small-molecule active pharmaceutical ingredients of approved cancer therapeutics inhibit human aspartate/asparagine-β-hydroxylase” (Bioorganic & Medicinal Chemistry, 2020)
